Experimental data published in patent US12559487B2, “Crosslinked optically active secondary amine derivative” (Sumitomo Pharma Co., Ltd., priority 2019, dated 2026).

Legend:
MV4; 11 cells = assay: Test 1: Test for evaluating the inhibition of cell proliferation; type: cell-based; settings: cultured for 7 days, PrestoBlue cell viability
Experimental: MV4; 11 cells were obtained from American Type Culture Collection (ATCC). The cells were cultured at 37° C. in the presence of 5% CO2 in RPMI 1640 medium containing 10% fetal bovine serum and 1% penicillin/streptomycin.
The cells were plated to a 96-well plate in 2000 cells/well, each test compound was added thereto to adjust the final concentration of DMSO to 0.1% of DMSO, and the cells were cultured for 7 days. After the cultivation, the cell viability was calculated with PrestoBlue™ Cell Viability Reagent (Invitrogen, A13261).

[1] = biological target: hERG (human Ether-a-go-go Related Gene) (Homo sapiens (Human), UniProt Q12809)
Chain of hERG (human Ether-a-go-go Related Gene) (Q12809 whole entry): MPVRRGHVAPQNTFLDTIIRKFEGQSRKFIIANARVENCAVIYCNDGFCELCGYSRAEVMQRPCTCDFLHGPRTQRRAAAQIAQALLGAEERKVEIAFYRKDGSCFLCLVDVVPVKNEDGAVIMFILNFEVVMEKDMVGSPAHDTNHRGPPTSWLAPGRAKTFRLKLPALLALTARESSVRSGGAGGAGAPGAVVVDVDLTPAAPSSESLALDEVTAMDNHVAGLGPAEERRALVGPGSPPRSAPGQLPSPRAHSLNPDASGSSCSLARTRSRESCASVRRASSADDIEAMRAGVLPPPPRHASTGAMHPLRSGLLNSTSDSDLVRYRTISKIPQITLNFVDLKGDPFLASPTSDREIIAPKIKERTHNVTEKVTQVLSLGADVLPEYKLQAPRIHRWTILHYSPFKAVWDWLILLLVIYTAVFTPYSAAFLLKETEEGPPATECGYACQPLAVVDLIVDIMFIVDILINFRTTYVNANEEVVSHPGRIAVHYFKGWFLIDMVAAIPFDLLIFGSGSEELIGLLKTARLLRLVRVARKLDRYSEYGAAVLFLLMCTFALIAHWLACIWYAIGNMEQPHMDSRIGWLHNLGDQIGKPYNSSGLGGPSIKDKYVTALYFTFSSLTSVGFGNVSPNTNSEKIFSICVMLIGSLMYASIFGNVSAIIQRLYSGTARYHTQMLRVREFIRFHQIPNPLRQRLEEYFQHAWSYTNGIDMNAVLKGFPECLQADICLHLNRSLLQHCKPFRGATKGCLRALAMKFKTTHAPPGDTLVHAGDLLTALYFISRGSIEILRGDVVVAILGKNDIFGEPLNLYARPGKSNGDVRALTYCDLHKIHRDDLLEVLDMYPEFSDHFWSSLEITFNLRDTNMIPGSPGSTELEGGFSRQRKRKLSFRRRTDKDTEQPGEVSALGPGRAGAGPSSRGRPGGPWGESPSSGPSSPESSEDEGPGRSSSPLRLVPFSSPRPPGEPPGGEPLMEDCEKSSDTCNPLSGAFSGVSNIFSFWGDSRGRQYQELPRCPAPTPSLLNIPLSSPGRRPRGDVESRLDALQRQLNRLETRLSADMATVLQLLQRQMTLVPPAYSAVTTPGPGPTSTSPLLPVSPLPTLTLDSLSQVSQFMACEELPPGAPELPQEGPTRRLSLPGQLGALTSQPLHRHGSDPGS

Substance	IC50 (MV4; 11 cells) [µM]	hERG/MV4; 11 [1]
2-(3-{1-[(3S)-2-azabicyclo[2.2.2]octane-3-carbonyl]-1,2,3,6-tetrahydropyridin-4-yl}-1H-pyrrolo[2,3-c]pyridin-1-yl)-5-fluoro-N,N-di(propan-2-yl)benzamide [Example 3]	0.036	489
2-[3-({1-[(3S)-2-azabicyclo[2.2.2]octane-3-carbonyl]azetidin-3-yl}methyl)-1H-pyrrolo[2,3-c]pyridin-1-yl]-5-fluoro-N-methyl-N-(propan-2-yl)benzamide [Example 26]	1.7	>59
